From patent US4544747A, “Quinoline carboxylic acid derivatives” (Otsuka Pharmaceutical Company, Limited, priority 1979, dated 1985)
≈ marks a conversion by molar mass, not a printed value.

Tests used:
rats = test: Acute toxicity test, oral, rats; conditions: rats (Wister strain, male)
Erwinia carotovora = test: Antimicrobial-activity test 2, agar dilution plate method, bacteria (A: soft rot of vegetable); type: cell-based; conditions: Pectobacterium carotovorum, 10^8 cells/ml, PDA medium, read-out: Minimum inhibitory concentration
Description: A: Soft rot of vegetable (Erwinia carotovora)

Xanthomonas oryzae = test: microbe, parasite or virus in culture; type: cell-based; conditions: read-out: Minimum inhibitory concentration
Xanthomonas pruni = test: Antimicrobial-activity test 2, agar dilution plate method, bacteria (C: peach bacterial spot); type: cell-based; conditions: Xanthomonas arboricola, 10^8 cells/ml, PDA medium, read-out: Minimum inhibitory concentration
Description: C: Peach bacterial spot (Xanthomonas pruni)

Pseudomonas solanacearum = test: microbe, parasite or virus in culture; type: cell-based; conditions: Ralstonia solanacearum, read-out: Minimum inhibitory concentration
Pseudomonas lachrymans = test: Antimicrobial-activity test 2, agar dilution plate method, bacteria (F: angular leaf spot of cucumber); type: cell-based; conditions: 10^8 cells/ml, PDA medium, read-out: Minimum inhibitory concentration
Description: F: Angular leaf spot of cucumber (Pseudomonas lachrymans)

Pyrisularia oryzae = test: microbe, parasite or virus in culture; type: cell-based; conditions: Pyricularia oryzae, 48 h, read-out: Minimum inhibitory concentration
Phytophthora melonis = test: microbe, parasite or virus in culture; type: cell-based; conditions: 48 h, read-out: Minimum inhibitory concentration
Phytophthora capsici = test: Antimicrobial-activity test 2, mycelial disc on agar plate, fungi (J: leaf blight of cucumber); type: cell-based; conditions: 48 h, complete inhibition of mycelial growth, 2 days, PDA medium, read-out: Minimum inhibitory concentration
Description: J: Leaf blight of cucumber (Phytophthora capsici)

[1] = system: Colletotrichum lagenarium; test: Antimicrobial-activity test 2, mycelial disc on agar plate, fungi (K: anthracnose of cucumber); type: cell-based; conditions: Colletotrichum orbiculare, 48 h, complete inhibition of mycelial growth, 2 days, PDA medium, read-out: Minimum inhibitory concentration
Description: K: Anthracnose of cucumber (Colletotrichum lagenarium)

Sclerotinia sclerotiorum = test: Antimicrobial-activity test 2, mycelial disc on agar plate, fungi (L: stem rot of eggplant); type: cell-based; conditions: 48 h, complete inhibition of mycelial growth, 2 days, PDA medium, read-out: Minimum inhibitory concentration
Description: L: Stem rot of eggplant (Sclerotinia sclerotiorum)

Mycosphaerella melonis = test: Antimicrobial-activity test 2, mycelial disc on agar plate, fungi (M: gummy stem blight of melon); type: cell-based; conditions: 48 h, complete inhibition of mycelial growth, 2 days, PDA medium, read-out: Minimum inhibitory concentration
Description: […] blight of melon (Mycosphaerella melonis)

Alternaria solani = test: Antimicrobial-activity test 2, mycelial disc on agar plate, fungi (N: early blight of tomato); type: cell-based; conditions: 48 h, complete inhibition of mycelial growth, 2 days, PDA medium, read-out: Minimum inhibitory concentration
Description: N: Early blight of tomato (Alternaria solani)

Xanthomonas citri = test: Antimicrobial-activity test 2, agar dilution plate method, bacteria (D: citrus canker); conditions: read-out: Minimum inhibitory concentration
[2] = system: Erwinia carotovora (soft-rot causing bacterium); test: Antimicrobial-activity test 3, incidence of soft rot on inoculated Japanese radish disks; conditions: 28° C.
Helminthosporium oryzae = test: Antimicrobial-activity test 2, mycelial disc on agar plate, fungi (H: Helminthosporium leaf spot); conditions: Bipolaris oryzae, 48 h, read-out: Minimum inhibitory concentration
[3] = 15.6 μg/ml, test specimen 1, 24 hours
[4] = 15.6 μg/ml, test specimen 2, 24 hours
[5] = 15.6 μg/ml, test specimen 3, 24 hours
[6] = 15.6 μg/ml, test specimen 4, 24 hours
[7] = 15.6 μg/ml, test specimen 5, 24 hours
[8] = 31.3 μg/ml, test specimen 1, 24 hours
[9] = 31.3 μg/ml, test specimen 2, 24 hours
[10] = 31.3 μg/ml, test specimen 3, 24 hours
[11] = 31.3 μg/ml, test specimen 4, 24 hours
[12] = 31.3 μg/ml, test specimen 5, 24 hours
[13] = 62.5 μg/ml, test specimen 1, 24 hours
[14] = 62.5 μg/ml, test specimen 2, 24 hours
[15] = 62.5 μg/ml, test specimen 3, 24 hours
[16] = 62.5 μg/ml, test specimen 4, 24 hours
[17] = 62.5 μg/ml, test specimen 5, 24 hours
[18] = 125 μg/ml, test specimen 1, 24 hours
[19] = 125 μg/ml, test specimen 2, 24 hours
[20] = 125 μg/ml, test specimen 3, 24 hours
[21] = 125 μg/ml, test specimen 4, 24 hours
[22] = 125 μg/ml, test specimen 5, 24 hours

Row | Compound | estimated LD50 (rats) | Disease incidence index [2, 3] | Disease incidence index [2, 4] | Disease incidence index [2, 5] | Disease incidence index [2, 6] | Disease incidence index [2, 7] | Disease incidence index [2, 8] | Disease incidence index [2, 9] | Disease incidence index [2, 10] | Disease incidence index [2, 11] | Disease incidence index [2, 12] | Disease incidence index [2, 13] | Disease incidence index [2, 14] | Disease incidence index [2, 15] | Disease incidence index [2, 16] | Disease incidence index [2, 17] | Disease incidence index [2, 18] | Disease incidence index [2, 19] | Disease incidence index [2, 20] | Disease incidence index [2, 21] | also measured
1 | CCn1cc(C(=O)O)c(=O)c2ccc(N3CCNCC3)c(C)c21 [Compound 1, 1-Ethyl-7-(1-piperazinyl)-8-methyl-4-oxo-1,4-dihydroquinoline-3-carboxylic acid] | not less than 500 mg/kg | – | – | – | – | – | – | – | – | – | – | – | – | – | – | – | – | – | – | – | –
2 | CCn1cc(C(=O)O)c(=O)c2ccc(Cl)c(C)c21 [Compound 2, 1-ethyl-7-chloro-8-methyl-4-oxo-1,4-dihydroquinoline-3-carboxylic acid] | not less than 500 mg/kg | 0 (0) | 1 (0< ≤1/3) | 1 (0< ≤1/3) | 1 (0< ≤1/3) | 1 (0< ≤1/3) | 0 (0) | 0 (0) | 0 (0) | 1 (0< ≤1/3) | 1 (0< ≤1/3) | 0 (0) | 0 (0) | 0 (0) | 0 (0) | 1 (0< ≤1/3) | 0 (0) | 0 (0) | 0 (0) | 0 (0) | MIC (Erwinia carotovora): 0.2 µg/mL (≈ 0.753 µM); MIC (Xanthomonas oryzae): 0.2 µg/mL (≈ 0.753 µM); MIC (Xanthomonas pruni): 0.4 µg/mL (≈ 1.51 µM); MIC (Pseudomonas solanacearum): 0.1 µg/mL (≈ 0.376 µM); MIC (Pseudomonas lachrymans): 100 µg/mL (≈ 376 µM); MIC (Pyrisularia oryzae): 50 µg/mL (≈ 188 µM); MIC (Phytophthora melonis): 12.5 µg/mL (≈ 47 µM); MIC (Phytophthora capsici): 25 µg/mL (≈ 94.1 µM); MIC [1]: 100 µg/mL (≈ 376 µM); MIC (Sclerotinia sclerotiorum): 100 µg/mL (≈ 376 µM); MIC (Mycosphaerella melonis): 50 µg/mL (≈ 188 µM); MIC (Alternaria solani): 50 µg/mL (≈ 188 µM); MIC (Xanthomonas citri): 0.1 µg/mL (≈ 0.376 µM); Disease incidence index [2, 22]: 1 (0< ≤1/3); MIC (Helminthosporium oryzae): 50 µg/mL (≈ 188 µM)
3 | [H]/N=C(/N)N[C@H]1[C@H](O)[C@@H](O)[C@H](O[C@@H]2O[C@@H](C)[C@](O)(C=O)[C@H]2O[C@@H]2O[C@@H](CO)[C@H](O)[C@@H](O)[C@@H]2NC)[C@@H](N/C(N)=N\[H])[C@@H]1O [Streptomycin, reference compound] | – | 3 | 3 | 3 | 3 | 3 | 2 | 2 | 3 | 3 | 3 | 1 (0< ≤1/3) | 1 (0< ≤1/3) | 2 | 2 | 2 | 1 (0< ≤1/3) | 1 (0< ≤1/3) | 1 (0< ≤1/3) | 1 (0< ≤1/3) | Disease incidence index [2, 22]: 1 (0< ≤1/3)
